Test: NOR (novel object recognition) task in rats
Format: in vivo, rat
Conditions: treated orally, 0.03 mg/kg
Procedure: FIG. 1 is a chart showing the results of a study on object recognition in rats treated orally with (1S,5S)-3-(5-bromofuran-2-ylcarbonyl)-3,6-diazabicyclo[3.2.1]octane. The results are shown as a function of recognition index (%) versus dose (mg/kg).
Certain exemplified compounds were assessed in the NOR (novel object recognition) task. Thus, (1S,5S)-3-(5-bromofuran-2-ylcarbonyl)-3,6-diazabicyclo[3.2.1]octane (FIG. 1) was active in NOR in rats, at 0.03 mg/kg. This provides evidence of the efficacy (and potency) of the compounds of the present invention in treating cognitive deficits, attentional disorders and dementias, and the potential of these compounds for human therapy.

O=C(c1ccc(Br)o1)N1C[C@@H]2CN[C@@H](C2)C1 [(1S,5S)-3-(5-bromofuran-2-ylcarbonyl)-3,6-diazabicyclo[3.2.1]octane]
activity in NOR (recognition index): active

From patent publication US20100144700A1, “HETEROCYCLIC-CARBONYL-DIAZABICYCLOALKANES AS MODULATORS OF THE NEURONAL NICOTINIC ACETYLCHOLINE ALPHA 4 BETA 2, SUBTYPE RECEPTOR FOR THE TREATMENT OF CNS RELATED DISORDERS” (TARGACEPT, INC., priority 2007, published 2010)
